Results: publication PMC10714930, “In silico virtual screening for the identification of novel inhibitors against dihydrodipicolinate reductase (DapB) of Mycobacterium tuberculosis, a key enzyme of diaminopimelate pathway” (Microbiology Spectrum, 2023)
≈ marks a conversion by molar mass, not a printed value.

Legend:
[1] = biological target: DapA and DapB (purified enzymes) (Mycobacterium tuberculosis, UniProt P9WP25); format: biochemical; settings: coupled enzyme assay, Michaelis-Menten plot
mycobacterial DapB = tested on: mycobacterial DapB; design: method as in PMID 12962488; settings: cited from earlier work
M. tb DapB = M. tb DapB (Mycobacterium tuberculosis, UniProt P9WP23); experiment: Dihydrodipicolinate reductase (DapB)-coupled enzymatic assay; format: biochemical
Protocol: The enzymatic assay of DapB is a coupled assay which requires the upstream enzyme DapA. The formation of tetrahydrodipicolinate by DapB was measured by monitoring conversion of NADPH to NADP^+ spectrophotometrically at 340 nm. The substrate of DapB, i.e., 2,4-dihydrodipicolinic acid, was prepared enzymatically through condensation of Aspartate Semialdehyde [(S)-ASA] and sodium pyruvate by DapA. The standard assay was performed in 50 mM sodium phosphate buffer (pH 7.5) consisting of 400 µM (S)-ASA, 160 µM NADPH, 500 µM sodium pyruvate, 3 µg DapB, and 5 µg DapA in a total reaction volume of 100 µL. […] The decrease in the absorbance of NADPH corresponding to the consumption of substrate was monitored at 340 nm after incubation for 10 minutes at room temperature. […] The activity of DapB in the presence of compounds was measured similarly; however, the enzyme was pre-incubated with the compounds for 10 minutes at 37°C. The percent activity for the samples in the presence of inhibitors was calculated by using a two-step method. Firstly, the absorbance values at 340 nm for each test sample (with or without the inhibitor) were normalized with the negative control (no substrate control). Subsequently, the percent activity was calculated by using the formula (normalized A340nm of inhibitor sample/normalized A340nm of no inhibitor sample) × 100. […]

[2] = tested on: M. tb H37Rv inside THP-1 macrophages; experiment: Intracellular inhibition assay in THP-1 macrophages; format: cell-based; settings: Mycobacterium tuberculosis, 120 h, CFU enumeration after 5 days of infection
M. tb H37Rv [3] = experiment: M. tb whole cell growth inhibition by resazurin microtiter assay; format: cell-based, Mycobacterium tuberculosis
M. tb H37Rv [4] = experiment: Checkerboard assay of B59 with B20; format: cell-based, Mycobacterium tuberculosis

DapA and DapB (purified enzymes), sequence (P9WP25 whole entry, looked up): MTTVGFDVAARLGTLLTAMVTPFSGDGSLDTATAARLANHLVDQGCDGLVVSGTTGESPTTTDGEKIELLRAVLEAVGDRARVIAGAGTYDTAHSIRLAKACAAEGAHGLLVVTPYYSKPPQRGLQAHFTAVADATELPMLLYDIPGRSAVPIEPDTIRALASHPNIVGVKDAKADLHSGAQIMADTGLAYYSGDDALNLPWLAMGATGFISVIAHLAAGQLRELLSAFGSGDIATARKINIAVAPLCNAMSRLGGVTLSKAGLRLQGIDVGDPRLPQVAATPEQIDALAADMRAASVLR
M. tb DapB, sequence (P9WP23 whole entry, looked up): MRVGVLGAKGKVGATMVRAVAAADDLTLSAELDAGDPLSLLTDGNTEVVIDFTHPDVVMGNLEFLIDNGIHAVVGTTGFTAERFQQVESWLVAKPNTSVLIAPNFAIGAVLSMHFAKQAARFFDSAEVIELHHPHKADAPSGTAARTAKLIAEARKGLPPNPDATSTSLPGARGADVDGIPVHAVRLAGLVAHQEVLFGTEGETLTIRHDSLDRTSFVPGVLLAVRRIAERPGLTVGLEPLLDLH

## CC(=O)C(=O)O [sodium pyruvate]
[1]
  Km: 125 µM

## NC(=O)C1=CN([C@@H]2O[C@H](COP(=O)(O)OP(=O)(O)OC[C@H]3O[C@@H](n4cnc5c(N)ncnc54)[C@H](O)[C@@H]3O)[C@@H](O)[C@H]2O)C=CC1 [NADH]
Mycobacterial DapB
  Km: 3.2 ± 0.4 µM

## COC(=O)CCCc1nc2ccccc2nc1N=Nc1ccccc1 [Compound B59, 4-(3-Phenylazoquinoxalin-2-yl) butanoic acid methyl ester]
M. tb DapB; IC50 exhibited by compounds in biochemical assay, DapB enzymatic activity, compounds 10-100 µg/mL
  IC50: 32.9 µM
M. tb DapB; at 100 µg/mL, read-out: inhibition of DapB enzyme activity
  inhibition at 100 µg/mL: > 80%
[2]
  MIC90: 73 mg/L (≈ 218 µM)
M. tb H37Rv [3]; M. tb H37Rv, 7 days, resazurin and drop plating
  MIC99 exhibited by compounds against M. tb growth: 20 mg/L (≈ 59.8 µM)
M. tb H37Rv [3]; Mycobacterium tuberculosis, 168 h, M. tb H37Rv, 7 days, resazurin and drop plating, read-out: MIC99 exhibited by compounds against M. tb growth
  MIC99: 20 mg/L (≈ 59.8 µM)
M. tb H37Rv [3]; at 0.5X MIC99 and 0.25X MIC99
  effect on bacterial growth by CFU enumeration: inhibition of the bacterial growth
M. tb H37Rv [4]; MIC99 in combination / MIC99 alone
  fractional inhibitory concentration (FIC): 0.062
M. tb H37Rv [4]; in the presence of 20 µg/mL of compound B20
  MIC99 of B59 in combination: 1.25 mg/L

## N[C@@H](CC=O)C(=O)O [ASA, L-aspartate-β-semialdehyde]
[1]
  Km: 345 µM

## NC(=O)C1=CN([C@@H]2O[C@H](COP(=O)(O)OP(=O)(O)OC[C@H]3O[C@@H](n4cnc5c(N)ncnc54)[C@H](OP(=O)(O)O)[C@@H]3O)[C@@H](O)[C@H]2O)C=CC1 [NADPH]
Mycobacterial DapB
  Km: 11.8 ± 1.5 µM
